The subject of the data set is Normal human articular chondrocytes (NHAC's). The data set can be described thus: Aggrecan induction, Alcian blue stain assay. It counts as cell-based. To be noted: primary human chondrocytes 12 days post infection, FIG. 5. As to the method:
A second assay to screen for chondrocyte anabolic factors is developed by monitoring the levels of aggrecan, another major constituent of cartilage. In this assay, glycosaminoglycans on aggrecan are stained by Alcian blue. NHACs are seeded in 384 well plates and 1 day after plating infected with individual Ad-siRNA from the SilenceSelect™ collection. […] Using Ad-BMP2 as a positive control, we confirm in a series of experiments that several parameters optimized for the ColII cELISA assay are also applicable for the Alcian blue stain assay for aggrecan. These parameters include cell seeding density, MOIs of control viruses, duration of infection, and the day of readout.
NHAC's are seeded on day 0 at 1500 cells/well of a 384 well black-plate with clear bottom in 60 μl of DMEM/F12, containing 10% FBS-HI and Pen/Strep and infected the next day with 2.5 μl of Ad-BMP2 or Ad-eGFP; at an MOI of 2000. After 7 days, 10 μl of a 50 μg/ml 2-Phospho-L-ascorbic acid in assay culture medium is added to each well. […] After replacing 50% ethanol/3% acetic acid with 70% ethanol/3% acetic acid, each individual well is photographed with a SONY CCD camera, images are analyzed using a Galapagos Alcian blue quantification algorithm based on the separation of the blue signal through a color threshold procedure after a noise reduction filter. […]

Turning to “GGTGTATGGGCTCATGTAC (adenoviral siRNA, target sequence only, chemistry not fully specified) [Ad-siRNA targeting FZD1]”, the “aggrecan levels (Alcian blue staining)” value is listed as “does not seem to induce Alcian blue staining”.

The values above are taken from patent US20070004658A1, “Method and means for treatment of osteoarthritis” (priority 2004, published 2007).
